Assay results as given in PMC12697865, “ZFPL1 Promotes Colorectal Cancer Progression by Stabilizing ASS1 to Drive the Urea Cycle and M2 Macrophage‐Mediated Metastatic Colonization” (Advanced Science, 2025).

Target: T1, zinc finger protein-like 1 (ZFPL1) (Homo sapiens, UniProt O95159)
T1 sequence (O95159 1-310): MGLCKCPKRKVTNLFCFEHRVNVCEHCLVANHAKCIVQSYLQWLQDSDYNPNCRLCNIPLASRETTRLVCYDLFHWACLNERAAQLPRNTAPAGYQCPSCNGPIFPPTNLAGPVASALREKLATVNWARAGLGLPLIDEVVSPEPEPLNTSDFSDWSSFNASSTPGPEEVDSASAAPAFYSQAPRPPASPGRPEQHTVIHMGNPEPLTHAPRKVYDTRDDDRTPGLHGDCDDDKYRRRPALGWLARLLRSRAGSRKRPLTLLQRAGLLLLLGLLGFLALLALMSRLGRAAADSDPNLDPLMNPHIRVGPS
Experiment: microscale thermophoresis (MST) with fluorescently labelled ZFPL1
Type: binding

Kd: 8.52 µM
Compound: O=C(/C=C/c1ccc(O)c2c1[C@H](C(=O)O[C@H](Cc1ccc(O)c(O)c1)C(=O)O)[C@@H](c1ccc(O)c(O)c1)O2)O[C@H](Cc1ccc(O)c(O)c1)C(=O)O [Salvianolic acid B]
